What all share (type): in vivo
Common to all, as to set-up: key: 5=81-100%; 4=61-80%; 3=41-60%; 2=21-40%; 1=1-20%; 0=no damage to the plant; -=not tested

The test system of test [1] is Amaranthus retoflexus (AMARE). As to the kind of experiment: Pre-emergence test, herbicidal damage. To be noted: 1000 g/ha unless otherwise stated, evaluated after 13 days, five-point scale.
The test system of test [2] is Echinochloa crus-galli (ECHCG). As to the kind of experiment: Post-emergence test, herbicidal damage. To be noted: sprayed after 8 days cultivation, 1000 g/ha unless otherwise stated, evaluated after 13 days, five-point scale. As for the experimental part:
(§1) Seeds of a variety of test species are sown in standard soil in pots Amaranthus palmeri (AMAPA), (Amaranthus retoflexus (AMARE), Echinochloa crus-galli (ECHCG), Zea mays (ZEAMX), Ipomoea 5 hederacea (IPOHE), and Setaria faberi (SETFA). After 8 days cultivation under controlled conditions in a glasshouse (at 24° C./16° C., day/night; 14 hours light; 65% humidity), the plants are sprayed with an aqueous spray solution derived from the formulation of the technical active ingredient in acetone/water (50:50) solution containing 0.5% Tween 20 (polyoxyethelyene sorbitan monolaurate, CAS RN 9005-64-5). Compounds are applied at 1000 g/ha unless otherwise stated. The test plants are then grown in a glasshouse under controlled conditions in a glasshouse (at 24° C./16° C., day/night; 14 hours light; 65% humidity) and watered twice daily. After 13 days the test is evaluated for the percentage damage caused to the plant. The biological activities are shown in the following table on a five-point scale (5=81-100%; 4=61-80%; 3=41-60%; 2=21-40%; 1=1-20%; 0=no damage to the plant; -=not tested).

Test [3] relates to Amaranthus palmeri (AMAPA). Briefly: Post-emergence test, herbicidal damage. To be noted: sprayed after 8 days cultivation, 1000 g/ha unless otherwise stated, evaluated after 13 days, five-point scale. As for the experimental part:
as §1

Test [4] deals with Ipomoea hederacea (IPOHE). Briefly: Post-emergence test, herbicidal damage. To be noted: sprayed after 8 days cultivation, 1000 g/ha unless otherwise stated, evaluated after 13 days, five-point scale. Here is the method: as §1
Test [5] relates to Setaria faberi (SETFA). As to the kind of experiment: Post-emergence test, herbicidal damage. The conditions noted are these: sprayed after 8 days cultivation, 1000 g/ha unless otherwise stated, evaluated after 13 days, five-point scale. Here is the method:
as §1

The test system of test [6] is Zea mays (ZEAMX). Briefly: Post-emergence test, herbicidal damage. To be noted: sprayed after 8 days cultivation, 1000 g/ha unless otherwise stated, evaluated after 13 days, five-point scale. Here is the method: as §1
For test [7], the system named is Amaranthus retoflexus (AMARE). Briefly: Post-emergence test, herbicidal damage. To be noted: sprayed after 8 days cultivation, 1000 g/ha unless otherwise stated, evaluated after 13 days, five-point scale. Here is the method:
as §1

Test [8] relates to Ipomoea hederacea (IPOHE). Briefly: Pre-emergence test, herbicidal damage. The conditions noted are these: 1000 g/ha unless otherwise stated, evaluated after 13 days, five-point scale.
Test [9] concerns Amaranthus palmeri (AMAPA). Briefly: Pre-emergence test, herbicidal damage. The conditions noted are these: 1000 g/ha unless otherwise stated, evaluated after 13 days, five-point scale.
Test [10] relates to Zea mays (ZEAMX). Briefly: Pre-emergence test, herbicidal damage. The conditions noted are these: 1000 g/ha unless otherwise stated, evaluated after 13 days, five-point scale.
In test [11] the test system is Echinochloa crus-galli (ECHCG). As to the kind of experiment: Pre-emergence test, herbicidal damage. To be noted: 1000 g/ha unless otherwise stated, evaluated after 13 days, five-point scale.
Test [12] deals with Setaria faberi (SETFA). As to the kind of experiment: Pre-emergence test, herbicidal damage. To be noted: 1000 g/ha unless otherwise stated, evaluated after 13 days, five-point scale.

Molecules are shown by their SMILES.

With `Cc1cc(-c2ccc(Cl)c(Cl)c2)c(C(=O)O)c(=O)[nH]1` [Compound 7, 4-(3,4-dichlorophenyl)-6-methyl-2-oxo-1H-pyridine-3-carboxylic acid], the “percentage damage caused to the plant, AMARE” value in [1] and in test [7] was 0 throughout. Further, the “percentage damage caused to the plant, ECHCG” value in test [2] and in test [11] was 0 throughout. Besides, the “percentage damage caused to the plant, AMAPA” value in [3] and in test [9] was 0 in each case. For the same compound, the “percentage damage caused to the plant, IPOHE” value in test [4] and in test [8] was 0 in each case. Moreover, the “percentage damage caused to the plant, SEFTA” value in the test with Setaria faberi (SETFA) [5] and in the test on Setaria faberi (SETFA) [12] was 0 in each case. The “percentage damage caused to the plant, ZEAMX” value with Zea mays (ZEAMX) [6] and in the test with Zea mays (ZEAMX) [10] was 0 throughout.
In the case of `Cc1cc(-c2ccc(Cl)c(Cl)c2)c(C(=O)O)c(=O)n1-c1ccc(F)cc1` [Compound 16, 4-(3,4-dichlorophenyl)-1-(4-fluorophenyl)-6-methyl-2-oxo-pyridine-3-carboxylic acid], the “percentage damage caused to the plant, AMARE” value is reported as 0 in test [1] and 1 (1=1-20%) in [7]. In addition, the figures for the “percentage damage caused to the plant, ECHCG” value in test [2] and in test [11] were 1 (1=1-20%) and 0, respectively. Moreover, the “percentage damage caused to the plant, AMAPA” value is recorded as 2 (2=21-40%) in test [3] and 0 in test [9]. For the same compound, the “percentage damage caused to the plant, IPOHE” value in test [4] was 1 (1=1-20%); in test [8], 0. In addition, the “percentage damage caused to the plant, SEFTA” value with Setaria faberi (SETFA) [5] is 2 (2=21-40%); with Setaria faberi (SETFA) [12], 0. Further, the “percentage damage caused to the plant, ZEAMX” value in the test on Zea mays (ZEAMX) [6] is 1 (1=1-20%); in the test with Zea mays (ZEAMX) [10] it was 0.
Regarding `Cc1[nH]c(=O)c(C(=O)O)c(-c2ccc(Cl)c(Cl)c2)c1C#N` [Compound 11, 5-cyano-4-(3,4-dichlorophenyl)-6-methyl-2-oxo-1H-pyridine-3-carboxylic acid], the “percentage damage caused to the plant, AMARE” value in test [1] and in test [7] was 0 throughout. The “percentage damage caused to the plant, ECHCG” value in [2] and in test [11] was 0 throughout. The “percentage damage caused to the plant, AMAPA” value in [3] and in test [9] was 0 throughout. Moreover, the “percentage damage caused to the plant, IPOHE” value in test [4] and in test [8] was 0 in each case. Moreover, the “percentage damage caused to the plant, SEFTA” value with Setaria faberi (SETFA) [5] and in the test with Setaria faberi (SETFA) [12] was 0 each time. In addition, the “percentage damage caused to the plant, ZEAMX” value in the test on Zea mays (ZEAMX) [6] and with Zea mays (ZEAMX) [10] was 0 in each case.
`CC#Cc1c(-c2ccc(Cl)c(Cl)c2)c(C(=O)O)c(=O)n(-c2cc(F)cc(Cl)c2)c1C` [Compound 40, 1-(3-chloro-5-fluoro-phenyl)-4-(3,4-dichlorophenyl)-6-methyl-2-oxo-5-prop-1-ynyl-pyridine-3-carboxylic acid]: the “percentage damage caused to the plant, AMARE” value in [1] and in [7] was 0 in each case. The “percentage damage caused to the plant, ECHCG” value in test [2] and in [11] was 0 in each case. Besides, the “percentage damage caused to the plant, AMAPA” value in test [3] and in [9] was 0 in each case. Moreover, the “percentage damage caused to the plant, IPOHE” value in [4] and in test [8] was 0 each time. The “percentage damage caused to the plant, SEFTA” value with Setaria faberi (SETFA) [5] and with Setaria faberi (SETFA) [12] was 0 throughout. For the same compound, the “percentage damage caused to the plant, ZEAMX” value in the test with Zea mays (ZEAMX) [6] and with Zea mays (ZEAMX) [10] was 0 each time.
As to `Cc1c(Br)c(-c2ccc(Cl)c(Cl)c2)c(C(=O)O)c(=O)n1-c1ccc(Cl)cc1F` [Compound 21, 5-bromo-1-(4-chloro-2-fluoro-phenyl)-4-(3,4-dichlorophenyl)-6-methyl-2-oxo-pyridine-3-carboxylic acid], the “percentage damage caused to the plant, AMARE” value in test [1] is recorded as 4 (4=61-80%). Moreover, the “percentage damage caused to the plant, ECHCG” value in test [2] is given as 0; in [11], 1 (1=1-20%). Besides, the “percentage damage caused to the plant, AMAPA” value in test [3] and in test [9] was 4 (4=61-80%) throughout. For the same compound, the “percentage damage caused to the plant, IPOHE” value in test [4] was 1 (1=1-20%). Besides, the “percentage damage caused to the plant, SEFTA” value in the test on Setaria faberi (SETFA) [5] and in the test on Setaria faberi (SETFA) [12] was 1 (1=1-20%) throughout. The “percentage damage caused to the plant, ZEAMX” value with Zea mays (ZEAMX) [6] is given as 1 (1=1-20%); in the test on Zea mays (ZEAMX) [10] it was 0.
For `Cc1c(Br)c(-c2ccc(Cl)c(Cl)c2)c(C(=O)O)c(=O)n1-c1ccc(F)cc1F` [Compound 29, 5-bromo-4-(3,4-dichlorophenyl)-1-(2,4-difluorophenyl)-6-methyl-2-oxo-pyridine-3-carboxylic acid], the “percentage damage caused to the plant, AMARE” value in test [1] and in test [7] was 1 (1=1-20%) each time. In addition, the “percentage damage caused to the plant, ECHCG” value in test [2] and in test [11] was 1 (1=1-20%) in each case. The “percentage damage caused to the plant, IPOHE” value in test [4] and in test [8] was 1 (1=1-20%) throughout. Further, the “percentage damage caused to the plant, SEFTA” value with Setaria faberi (SETFA) [5] and in the test with Setaria faberi (SETFA) [12] was 1 (1=1-20%) each time. For the same compound, the “percentage damage caused to the plant, ZEAMX” value in the test with Zea mays (ZEAMX) [6] and with Zea mays (ZEAMX) [10] was 0 throughout.
`Cc1cc(-c2ccc(Cl)c(Cl)c2)c(C(=O)O)c(=O)n1Cc1ccc(C(F)(F)F)cc1F` [Compound 27, 4-(3,4-dichlorophenyl)-1-[[2-fluoro-4-(trifluoromethyl)phenyl]methyl]-6-methyl-2-oxo-pyridine-3-carboxylic acid]: the “percentage damage caused to the plant, AMARE” value in test [1] and in [7] was 0 throughout. Besides, the “percentage damage caused to the plant, ECHCG” value in test [2] is reported as 0. For the same compound, the “percentage damage caused to the plant, AMAPA” value in test [3] and in [9] was 1 (1=1-20%) throughout. For the same compound, the “percentage damage caused to the plant, SEFTA” value in the test with Setaria faberi (SETFA) [5] and in the test with Setaria faberi (SETFA) [12] was 0 throughout. In addition, the “percentage damage caused to the plant, ZEAMX” value in the test with Zea mays (ZEAMX) [6] and in the test with Zea mays (ZEAMX) [10] was 0 in each case. The “percentage damage caused to the plant, IPOHE” value in test [8] worked out at 0.
For the compound `Cc1cc(-c2ccc(Cl)c(Cl)c2)c(C(=O)O)c(=O)n1-c1ccc(F)cc1F` [Compound 14, 4-(3,4-dichlorophenyl)-1-(2,4-difluorophenyl)-6-methyl-2-oxo-pyridine-3-carboxylic acid], the “percentage damage caused to the plant, AMARE” value in test [1] is listed as 0; in test [7] it was 1 (1=1-20%). In addition, the entries for the “percentage damage caused to the plant, ECHCG” value in test [2] and in [11] were 1 (1=1-20%) and 0, respectively. The “percentage damage caused to the plant, AMAPA” value in [3] is on record as 1 (1=1-20%). In addition, the “percentage damage caused to the plant, IPOHE” value in test [4] and in test [8] was 0 in each case. The “percentage damage caused to the plant, SEFTA” value in the test with Setaria faberi (SETFA) [5] is 1 (1=1-20%); in the test on Setaria faberi (SETFA) [12], 0. Moreover, the “percentage damage caused to the plant, ZEAMX” value with Zea mays (ZEAMX) [6] is on record as 1 (1=1-20%); in the test on Zea mays (ZEAMX) [10] it was 0.

Source of the values: patent US20250289787A1, “HERBICIDAL 2-OXO-NICOTINIC ACID DERIVATIVES” (SYNGENTA CROP PROTECTION AG, priority 2022, published 2025).
